Test results from paper PMC6835763, “Influence of Short Cationic Lipopeptides with Fatty Acids of Different Chain Lengths on Bacterial Biofilms Formed on Polystyrene and Hydrogel Surfaces” (Pharmaceutics, 2019).
In brackets after ≈: the same amount, converted by molar mass. Where a SMILES comes first, the peptide text is derived from it. Bridges are numbered along the chain shown (N, C = ends). Roman numbers before positions name the chains, in order. The star is where a group is joined. Palmitoyl = CCCCCCCCCCCCCCCC(=O)*; Lauroyl = CCCCCCCCCCCC(=O)*

Assays:
EC biofilm = conditions: cited from earlier work
Text: (§1) They were ineffective against PM, which was difficult to eradicate with peptides (and antibiotics) in previously performed studies. PM can cause infections of the urinary tract, skin, subcutaneous tissue, and wounds. PM is known as a biofilm former, and an evident increase of PM resistance to broad-spectrum fluoroquinolones and cephalosporins has been observed. In the previous study, mature PM b ...

PA biofilm = conditions: cited from earlier work
Text: as §1

SA biofilms = system: SA biofilms; set-up: method as in PMID 24779193; conditions: cited from earlier work
PM biofilm = conditions: cited from earlier work; for concentration eradicating the PM biofilm: mature PM biofilms
Text: as §1

[1] = system: Enterococcus faecalis ATCC 29212; type: cell-based; conditions: ATCC 29212, 18 h
Description: (§2) The reference strains of gram-positive and gram-negative bacteria (Table 2) were obtained from the Polish Collection of Microorganisms (Polish Academy of Science, Wroclaw, Poland). The microorganisms were cultured in Muller Hinton Broth II (MHB II, Biocorp, Warsaw, Poland), overnight, at 37 °C. The MICs of synthetic lipopeptides and conventional antimicrobials were determined using the broth microdilution method according to the Clinical and Laboratory Standard Institute (CLSI) guidelines on reference strains. […] The PS were incubated under aerobic conditions at 37 °C for 18 h. The MIC (μg/mL) was assumed as the lowest concentration of the compound that inhibited the growth of the microorganisms. All experiments were performed in triplicate and included the growth and sterility controls.

[2] = system: Staphylococcus aureus ATCC 25923; type: cell-based; conditions: ATCC 25923, 18 h
Description: as §2

[3] = system: Escherichia coli ATCC 25922; type: cell-based; conditions: ATCC 25922, 18 h
Description: as §2

[4] = system: Pseudomonas aeruginosa ATCC 9027; type: cell-based; conditions: ATCC 9027, 18 h
Description: as §2

[5] = system: Staphylococcus epidermidis ATCC 14990; type: cell-based; conditions: ATCC 14990, 18 h
Description: as §2

[6] = system: Enterococcus faecalis ATCC 29212; type: cell-based; conditions: ATCC 29212, 24 h
Description: (§3) The biofilms of bacteria associated with the biofilm-related infections were cultured on 96-well flat bottom PS and on CL placed in 24-well plates. The bacteria at initial inoculums of 5 × 10^8 CFU/mL in MHB II were added to the plates and incubated at 37 °C under aerobic conditions. After 24 h of incubation, all cultures were rinsed three times with PBS and fresh medium was added. Subsequently, the obtained biofilm cultures were exposed to solutions of antimicrobials applied at graded concentrations ranging from 1 to 512 μg/mL for 24 h at 37 °C. The anti-biofilm activity of antimicrobials was visualized by resazurin (final concentration per sample = 0.005%) in the same way as in the MBFIC assay. All experiments were performed in triplicate and included growth controls (positive control: bacterial suspension without antimicrobials) and sterility controls (negative controls: sterile MBH II medium).

[7] = system: Staphylococcus aureus ATCC 25923; type: cell-based; conditions: ATCC 25923, 24 h
Description: as §3

[8] = system: Escherichia coli ATCC 25922; type: cell-based; conditions: ATCC 25922, 24 h
Description: as §3

[9] = system: Pseudomonas aeruginosa ATCC 9027; type: cell-based; conditions: ATCC 9027, 24 h
Description: as §3

[10] = system: Staphylococcus epidermidis ATCC 14990; type: cell-based; conditions: ATCC 14990, 24 h
Description: as §3

[11] = system: Proteus mirabilis PCM 543; type: cell-based; conditions: PCM 543, 24 h
Description: as §3

[12] = system: Enterococcus faecalis ATCC 29212; assay: MBFIC assay (biofilm formation inhibition, resazurin); type: cell-based; conditions: ca. 5 × 10^8 CFU/mL in MHB II, 37 °C, 18 h, visual, triplicate; for MBFIC E. faecalis, CL: contact lenses (CL, Etafilcon A hydrogel) in 24-well plates; for MBFIC E. faecalis, PS: polystyrene plates (PS), 96-well
Description: (§4) To determine the inhibitory effect of antimicrobials on the formation of biofilm on hydrophobic surfaces, the bacterial suspensions of strains (initial inoculum of ca. 5 × 10^8 CFU/mL in MHB II medium supplemented with antimicrobials) were cultured on 96-well PS at 37 °C for 18 h under aerobic conditions. After incubation, the suspensions were aspirated, and the wells were rinsed three times with sterile phosphate buffer PBS (AppliChem, Darmstadt, Germany) in order to remove the planktonic cells. Resazurin (final concentration per sample = 0.005%) was applied as a cell viability reagent for reading the results. In contact with the living cells, the dye is metabolized by bacterial dehydrogenases, resulting in a reduction of blue resazurin to pink resorufin. All assays were performed in triplicate and included the growth controls (positive controls: bacterial suspensions without antimicrobials) and the sterility controls (negative controls: a sterile MBH medium). After 1h of incubation, a visual evaluation of results was made. […] In a preliminary study, it was established that the application of lipopeptides at a concentration found active from visual evaluation caused the reduction of bacterial metabolism to approximately 10% (or less) of the positive control once the results were evaluated with a spectrophotometer. After 1 h of incubation with the dye, absorbance was measured at 570 and 600 nm using a microplate reader (Thermo Fisher Scientific, Waltham, MA, USA). The metabolic activity of bacteria in the samples was measured according to the formula presented in the previous paper.
(§5) The MBFIC assay with CL was applied in order to access the influence of lipopeptides on the biofilm formation on hydrogel surfaces. The entire sterile CL (1-Day Acuvue Moist, containing Etafilcon A., purchased from Johnson & Johnson (Vision Care, Jacksonsville, FL, USA), were placed in 24-well PS (Orange Scientific, Braine-l’ Alleud, Belgium) and the MBFICs were determined according to the above protocol.

[13] = system: Staphylococcus aureus ATCC 25923; assay: as above; type: cell-based; conditions: ca. 5 × 10^8 CFU/mL in MHB II, 37 °C, 18 h, resazurin, visual, triplicate; for MBFIC S. aureus, CL: contact lenses (CL, Etafilcon A hydrogel) in 24-well plates; for MBFIC S. aureus, PS: polystyrene plates (PS), 96-well
Description: as §4, §5

[14] = system: Escherichia coli ATCC 25922; assay: as above; type: cell-based; conditions: ca. 5 × 10^8 CFU/mL in MHB II, 37 °C, 18 h, visual, triplicate; for MBFIC E. coli, CL: contact lenses (CL, Etafilcon A hydrogel) in 24-well plates; for MBFIC E. coli, PS: polystyrene plates (PS), 96-well
Description: as §4, §5

[15] = system: Pseudomonas aeruginosa ATCC 9027; assay: as above; type: cell-based; conditions: ca. 5 × 10^8 CFU/mL in MHB II, 37 °C, 18 h, visual, triplicate; for MBFIC P. aeruginosa, CL: contact lenses (CL, Etafilcon A hydrogel) in 24-well plates; for MBFIC P. aeruginosa, PS: polystyrene plates (PS), 96-well
Description: as §4, §5

[16] = system: Staphylococcus epidermidis ATCC 14990; assay: as above; type: cell-based; conditions: ca. 5 × 10^8 CFU/mL in MHB II, 37 °C, 18 h, resazurin, visual, triplicate; for MBFIC S. epidermidis, CL: contact lenses (CL, Etafilcon A hydrogel) in 24-well plates; for MBFIC S. epidermidis, PS: polystyrene plates (PS), 96-well
Description: as §4, §5

[17] = system: Proteus mirabilis PCM 543; assay: as above; type: cell-based; conditions: ca. 5 × 10^8 CFU/mL in MHB II, 37 °C, 18 h, visual, triplicate; for MBFIC P. mirabilis, CL: contact lenses (CL, Etafilcon A hydrogel) in 24-well plates; for MBFIC P. mirabilis, PS: polystyrene plates (PS), 96-well
Description: as §4, §5

[18] = RP-HPLC retention to evaluate the hydrophobicity of lipopeptides; type: physicochemical; conditions: chromatographic, Luna C18(2) 3.0 × 100 mm, 5.0 µm, linear 20–80% acetonitrile in water over 10 min, 0.1% formic acid, 0.5 mL/min, UV 214 nm, used to evaluate hydrophobicity
Description: The crude peptide was lyophilized and subsequently purified by RP-HPLC. The purifications were carried out on a Phenomenex Gemini-NX C18 column (21.20 × 100 mm, 5.0 µm particle size, and 110 Å pore size). Acetonitrile and water, both containing 0.1% of TFA, were used as the mobile phase. UV detection at 214 nm was used. The crude peptides were eluted with a linear 20–80% acetonitrile gradient in deionized water over 60 min at a flow rate of 10.0 mL/min. The purity and identity of the peptides were confirmed with LC-MS analysis. A Waters Alliance e2695 RP-HPLC system (Waters, Milford, MA, USA) with Waters 2998 PDA (Waters, Milford, MA, USA) and Acquity QDA detectors (Empower®3 software, Database Version 7.21.00.00) was used. All analyses were carried out on a Phenomenex, Luna C18(2) column (3.0 × 100 mm, 5.0 µm particle size, 100 Å pore size). The samples were analyzed with a linear 20–80% acetonitrile gradient in deionized water over 10 min at a flow rate of 0.5 mL/min with UV detection at 214 nm. Both eluents contained 0.1% (v/v) of formic acid. The pure fractions (>95%, by HPLC analysis) were collected and lyophilized. The retention time and percentage of ACN (%) at which each peptide was eluted are included in Table 1 to evaluate the hydrophobicity of lipopeptides. The identity of all compounds was confirmed using mass spectrometry (Waters Alliance e2695 system with Acquity QDA detector, Waters, Milford, MA, USA) with electrospray ionization in positive ion mode (ESI-MS). In this mode, a proton is attached to basic moieties (amine groups, guanidine groups). The theoretical mass of the peptide was calculated and then expected ions (m/z—mass to charge ratio) were compared to measured m/z. The results are presented in Table 1, and mass spectra are presented in the Supplementary Materials.

Compound: O=C(N[C@H](CO)[C@H](O)c1ccc([N+](=O)[O-])cc1)C(Cl)Cl [chloramphenicol]
- activity against EC biofilms (EC biofilm): rather weak activity
- activity against PA biofilm (PA biofilm): weak antibiofilm agents
- susceptibility of SA biofilms (SA biofilms): resistant

Compound: citropin 1.1
- susceptibility of mature PM biofilms (PM biofilm): resistant

Compound: C16-RR-NH2 [Lipopeptide C16-RR-NH2]
- susceptibility of mature PM biofilms (PM biofilm): resistant

Compound: omiganan
- susceptibility of mature PM biofilms (PM biofilm): resistant

Compound: pexiganan
- susceptibility of mature PM biofilms (PM biofilm): resistant

Compound: C16-KK-NH2 [Lipopeptide C16-KK-NH2]
- concentration eradicating the PM biofilm (PM biofilm): 512 µg/mL

Compound: CCCCCCCCCCCC(=O)N[C@@H](CCCCN)C(=O)N[C@@H](CCCNC(=N)N)C(N)=O [Lipopeptide 2, C12-KR-NH2] (Lauroyl-Lys-Arg-NH2)
- MIC E. faecalis [1]: 64 µg/mL (≈ 132 µM)
- MIC S. aureus [2]: 64 µg/mL (≈ 132 µM)
- MIC E. coli [3]: 512 µg/mL (≈ 1060 µM)
- MIC P. aeruginosa [4]: 512 µg/mL (≈ 1060 µM)
- MIC S. epidermidis [5]: 32 µg/mL (≈ 66.2 µM)
- MBEC E. faecalis, CL [6]: 128 µg/mL
- MBEC S. aureus, CL [7]: > 512 µg/mL
- MBEC E. coli, CL [8]: 512 µg/mL
- MBEC P. aeruginosa, CL [9]: >512/>512 μg/mL
- MBEC S. epidermidis, CL [10]: 256 µg/mL
- MBEC P. mirabilis, CL [11]: >512/>512 μg/mL
- MBFIC E. faecalis, CL [12]: 512/512 μg/mL
- MBFIC E. faecalis, PS [12]: 512/512 μg/mL
- MBFIC S. aureus, CL [13]: 128 µg/mL
- MBFIC S. aureus, PS [13]: 64 µg/mL
- MBFIC E. coli, CL [14]: 128 µg/mL
- MBFIC E. coli, PS [14]: 512 µg/mL
- MBFIC P. aeruginosa, CL [15]: 512/512 μg/mL
- MBFIC P. aeruginosa, PS [15]: 512/512 μg/mL
- MBFIC S. epidermidis, CL [16]: 32 µg/mL
- MBFIC S. epidermidis, PS [16]: 16 µg/mL
- MBFIC P. mirabilis, CL [17]: >512/512 μg/mL
- MBFIC P. mirabilis, PS [17]: >512/512 μg/mL
- % ACN at which the peptide was eluted [18]: 33.9%
- tR' (adjusted retention time) [18]: 2.32 min

Compound: polymyxin B
- concentration eradicating the PM biofilm (PM biofilm): 512 µg/mL

Compound: CCCCCCCCCCCCCCCC(=O)N[C@@H](CCCCN)C(=O)N[C@@H](CCCCN)C(=O)N[C@@H](CSSC[C@H](NC(=O)[C@H](CCCCN)NC(=O)[C@H](CCCCN)NC(=O)CCCCCCCCCCCCCCC)C(N)=O)C(N)=O [Lipopeptide 6, C16-KKC-NH2] (I: Palmitoyl-Lys-Lys-Cys-NH2 / II: Palmitoyl-Lys-Lys-Cys-NH2; disulfide I:3-II:3)
- MIC E. faecalis [1]: 256 µg/mL (≈ 208 µM)
- MIC S. aureus [2]: 256 µg/mL (≈ 208 µM)
- MIC E. coli [3]: 256 µg/mL (≈ 208 µM)
- MIC P. aeruginosa [4]: 256 µg/mL (≈ 208 µM)
- MIC S. epidermidis [5]: 128 µg/mL (≈ 104 µM)
- MBEC E. faecalis, CL [6]: 512/512 μg/mL
- MBEC S. aureus, CL [7]: 512 µg/mL
- MBEC E. coli, CL [8]: 512/512 μg/mL
- MBEC P. aeruginosa, CL [9]: >512/>512 μg/mL
- MBEC S. epidermidis, CL [10]: 256/256 μg/mL
- MBEC P. mirabilis, CL [11]: >512/>512 μg/mL
- MBFIC E. faecalis, CL [12]: 256/256 μg/mL
- MBFIC E. faecalis, PS [12]: 256/256 μg/mL
- MBFIC S. aureus, CL [13]: 64 µg/mL
- MBFIC S. aureus, PS [13]: 256 µg/mL
- MBFIC E. coli, CL [14]: 128 µg/mL
- MBFIC E. coli, PS [14]: 512 µg/mL
- MBFIC P. aeruginosa, CL [15]: 256 µg/mL
- MBFIC P. aeruginosa, PS [15]: 512 µg/mL
- MBFIC S. epidermidis, CL [16]: 64 µg/mL
- MBFIC S. epidermidis, PS [16]: 256 µg/mL
- MBFIC P. mirabilis, CL [17]: >512/512 μg/mL
- MBFIC P. mirabilis, PS [17]: >512/512 μg/mL
- % ACN at which the peptide was eluted [18]: 47.8%
- tR' (adjusted retention time) [18]: 4.63 min
